Measured values published in publication PMC2918681 (Biochemical and biophysical research communications, 2010).

Legend:
[1] = molecular target: T1, acyl-coenzyme A:cholesterol acyltransferase 1 (ACAT1) (Homo sapiens, UniProt P35610); test: [3H]oleate incorporation into cholesteryl oleate in CHO-ACAT1 cells; assay type: cell-based
T1 sequence (P35610 1-550): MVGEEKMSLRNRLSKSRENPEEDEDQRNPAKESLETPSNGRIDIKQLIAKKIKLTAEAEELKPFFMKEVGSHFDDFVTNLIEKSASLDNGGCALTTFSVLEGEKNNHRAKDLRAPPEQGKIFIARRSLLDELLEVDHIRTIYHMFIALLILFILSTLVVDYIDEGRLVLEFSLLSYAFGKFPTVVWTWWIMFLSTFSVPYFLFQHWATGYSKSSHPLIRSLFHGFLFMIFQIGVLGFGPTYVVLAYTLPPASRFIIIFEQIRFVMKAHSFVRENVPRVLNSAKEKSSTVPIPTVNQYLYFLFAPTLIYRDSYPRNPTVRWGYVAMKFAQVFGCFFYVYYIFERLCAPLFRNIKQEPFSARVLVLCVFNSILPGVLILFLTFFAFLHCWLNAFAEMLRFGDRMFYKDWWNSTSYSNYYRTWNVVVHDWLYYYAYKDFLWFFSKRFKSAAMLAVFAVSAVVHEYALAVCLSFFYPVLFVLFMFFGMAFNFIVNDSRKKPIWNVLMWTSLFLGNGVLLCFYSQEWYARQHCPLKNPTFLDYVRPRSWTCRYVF

[2] = molecular target: T2, acyl-coenzyme A:cholesterol acyltransferase 2 (ACAT2) (Homo sapiens, UniProt O75908); test: [3H]oleate incorporation into cholesteryl oleate in CHO-ACAT2 cells; assay type: cell-based
T2 sequence (O75908 1-522): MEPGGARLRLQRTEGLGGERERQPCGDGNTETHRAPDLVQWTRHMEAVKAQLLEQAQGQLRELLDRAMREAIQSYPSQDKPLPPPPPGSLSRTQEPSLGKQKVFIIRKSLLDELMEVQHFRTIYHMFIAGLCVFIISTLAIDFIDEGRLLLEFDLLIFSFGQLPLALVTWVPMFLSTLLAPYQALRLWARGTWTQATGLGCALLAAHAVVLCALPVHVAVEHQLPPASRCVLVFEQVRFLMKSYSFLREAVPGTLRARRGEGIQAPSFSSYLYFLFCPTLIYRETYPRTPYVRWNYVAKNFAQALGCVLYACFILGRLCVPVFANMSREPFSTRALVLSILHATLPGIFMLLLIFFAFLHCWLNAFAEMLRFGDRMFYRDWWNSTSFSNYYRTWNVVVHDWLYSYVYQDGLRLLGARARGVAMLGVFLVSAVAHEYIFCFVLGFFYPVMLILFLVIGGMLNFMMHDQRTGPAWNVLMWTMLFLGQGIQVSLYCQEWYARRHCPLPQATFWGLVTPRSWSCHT

IC50 [1]: 1.5 ± 1.2 µM
IC50 [2]: 2.2 ± 1.1 µM
Structure (SMILES): Cc1c(C(=O)NN2CCCCC2)nn(-c2ccc(Cl)cc2Cl)c1-c1ccc(Cl)cc1 [Rimonabant]
